Data published in the NIST ThermoML archive (doi:10.1007/s10765-006-0051-4).

Experiment: xn = mol fraction of the nth substance listed
Conditions: Gas, Oscillating disk viscometry

FC(F)C(F)(F)F [pentafluoroethane] + CCC
Conditions	viscosity [mPa·s]
298.15 K, 101.2 kPa, x1 = 0.7503	0.01219
298.15 K, 102 kPa, x1 = 0.5011	0.01122
298.15 K, 197.9 kPa, x1 = 0.7503	0.01223
298.15 K, 198.2 kPa, x1 = 0.5011	0.01121
298.15 K, 294.6 kPa, x1 = 0.7503	0.01221
298.15 K, 302.6 kPa, x1 = 0.5011	0.01121
298.15 K, 391.5 kPa, x1 = 0.7503	0.01222
298.15 K, 396.1 kPa, x1 = 0.5011	0.01123
298.15 K, 492.3 kPa, x1 = 0.7503	0.01223
298.15 K, 499.4 kPa, x1 = 0.5011	0.01123
298.15 K, 589.1 kPa, x1 = 0.7503	0.01225
298.15 K, 591.1 kPa, x1 = 0.5011	0.01124
298.15 K, 687.4 kPa, x1 = 0.5011	0.01125
298.15 K, 689 kPa, x1 = 0.7503	0.01229
298.15 K, 789 kPa, x1 = 0.5011	0.01128
298.15 K, 803.5 kPa, x1 = 0.7503	0.01229
298.15 K, 913.4 kPa, x1 = 0.7503	0.01235
298.15 K, 928.2 kPa, x1 = 0.5011	0.01131
298.15 K, 1012.4 kPa, x1 = 0.7503	0.01248
298.15 K, 1025.1 kPa, x1 = 0.5011	0.01138
298.15 K, 1231.3 kPa, x1 = 0.7503	0.01257
323.15 K, 101.8 kPa, x1 = 0.5011	0.01214
323.15 K, 102.2 kPa, x1 = 0.7503	0.01319
323.15 K, 199 kPa, x1 = 0.7503	0.01317
323.15 K, 213.9 kPa, x1 = 0.5011	0.01213
323.15 K, 294.9 kPa, x1 = 0.7503	0.0132
323.15 K, 391.1 kPa, x1 = 0.7503	0.01321
323.15 K, 395.8 kPa, x1 = 0.5011	0.01215
323.15 K, 519.4 kPa, x1 = 0.7503	0.01322
323.15 K, 592.8 kPa, x1 = 0.5011	0.01219
323.15 K, 636.3 kPa, x1 = 0.7503	0.01325
323.15 K, 766.4 kPa, x1 = 0.7503	0.01326
323.15 K, 788.9 kPa, x1 = 0.5011	0.01225
323.15 K, 883.2 kPa, x1 = 0.7503	0.01334
323.15 K, 983.8 kPa, x1 = 0.5011	0.01228
323.15 K, 1005.1 kPa, x1 = 0.7503	0.01339
323.15 K, 1125.1 kPa, x1 = 0.7503	0.01346
323.15 K, 1181.8 kPa, x1 = 0.5011	0.01241
323.15 K, 1249.7 kPa, x1 = 0.7503	0.01351
323.15 K, 1371.2 kPa, x1 = 0.7503	0.01361
323.15 K, 1374.9 kPa, x1 = 0.5011	0.01255
323.15 K, 1486.3 kPa, x1 = 0.7503	0.01367
323.15 K, 1618.9 kPa, x1 = 0.7503	0.01379
323.15 K, 1667.7 kPa, x1 = 0.5011	0.01272
323.15 K, 1736.1 kPa, x1 = 0.7503	0.01387
323.15 K, 1862.6 kPa, x1 = 0.5011	0.01289
323.15 K, 1864.4 kPa, x1 = 0.7503	0.01404
323.15 K, 1985.7 kPa, x1 = 0.5011	0.013
323.15 K, 1992.1 kPa, x1 = 0.7503	0.0142
323.15 K, 2071.4 kPa, x1 = 0.5011	0.01314
323.15 K, 2101.6 kPa, x1 = 0.7503	0.01435
323.15 K, 2211.6 kPa, x1 = 0.7503	0.01452
323.15 K, 2349.2 kPa, x1 = 0.7503	0.01482
348.15 K, 101.1 kPa, x1 = 0.5011	0.01295
348.15 K, 101.4 kPa, x1 = 0.7503	0.01409
348.15 K, 198.4 kPa, x1 = 0.5011	0.01299
348.15 K, 199.7 kPa, x1 = 0.7503	0.01407
348.15 K, 305.5 kPa, x1 = 0.5011	0.01297
348.15 K, 388.2 kPa, x1 = 0.7503	0.01416
348.15 K, 401.6 kPa, x1 = 0.5011	0.01296
348.15 K, 588.6 kPa, x1 = 0.7503	0.01424
348.15 K, 592.5 kPa, x1 = 0.5011	0.01307
348.15 K, 750.8 kPa, x1 = 0.7503	0.01427
348.15 K, 784.8 kPa, x1 = 0.5011	0.01316
348.15 K, 978.4 kPa, x1 = 0.7503	0.01432
348.15 K, 986 kPa, x1 = 0.5011	0.01318
348.15 K, 1173.8 kPa, x1 = 0.7503	0.01443
348.15 K, 1178.4 kPa, x1 = 0.5011	0.01326
348.15 K, 1374.6 kPa, x1 = 0.5011	0.01335
348.15 K, 1374.7 kPa, x1 = 0.7503	0.01455
348.15 K, 1565.7 kPa, x1 = 0.7503	0.01468
348.15 K, 1571.2 kPa, x1 = 0.5011	0.0135
348.15 K, 1770.2 kPa, x1 = 0.7503	0.01482
348.15 K, 1772.3 kPa, x1 = 0.5011	0.01362
348.15 K, 1960.9 kPa, x1 = 0.5011	0.01374
348.15 K, 1963.9 kPa, x1 = 0.7503	0.01499
348.15 K, 2130.4 kPa, x1 = 0.7503	0.01511
348.15 K, 2139.9 kPa, x1 = 0.5011	0.01387
348.15 K, 2297.9 kPa, x1 = 0.5011	0.01404
348.15 K, 2335.5 kPa, x1 = 0.7503	0.01538
348.15 K, 2492.4 kPa, x1 = 0.7503	0.01555
348.15 K, 2501 kPa, x1 = 0.5011	0.0143
348.15 K, 2660.6 kPa, x1 = 0.7503	0.01583
348.15 K, 2695.6 kPa, x1 = 0.5011	0.01451
348.15 K, 2804.7 kPa, x1 = 0.7503	0.01604
348.15 K, 2928.8 kPa, x1 = 0.7503	0.01629
348.15 K, 2932.5 kPa, x1 = 0.5011	0.01494
348.15 K, 3079.4 kPa, x1 = 0.7503	0.01666
348.15 K, 3111.7 kPa, x1 = 0.5011	0.01524
348.15 K, 3230.6 kPa, x1 = 0.7503	0.01697
348.15 K, 3383.2 kPa, x1 = 0.7503	0.01739
373.15 K, 101 kPa, x1 = 0.7503	0.01505
373.15 K, 101.5 kPa, x1 = 0.5011	0.01376
373.15 K, 220 kPa, x1 = 0.7503	0.01506
373.15 K, 225.5 kPa, x1 = 0.5011	0.01381
373.15 K, 389.7 kPa, x1 = 0.7503	0.0151
373.15 K, 397.7 kPa, x1 = 0.5011	0.01383
373.15 K, 585.6 kPa, x1 = 0.5011	0.01386
373.15 K, 637.7 kPa, x1 = 0.7503	0.01515
373.15 K, 781.4 kPa, x1 = 0.5011	0.01393
373.15 K, 877.8 kPa, x1 = 0.7503	0.01525
373.15 K, 980.5 kPa, x1 = 0.5011	0.01401
373.15 K, 1141.8 kPa, x1 = 0.7503	0.01537
373.15 K, 1174.2 kPa, x1 = 0.5011	0.01407
373.15 K, 1370.5 kPa, x1 = 0.5011	0.01413
373.15 K, 1477.4 kPa, x1 = 0.7503	0.01552
373.15 K, 1560.4 kPa, x1 = 0.5011	0.01422
373.15 K, 1717 kPa, x1 = 0.7503	0.01566
373.15 K, 1753.9 kPa, x1 = 0.5011	0.01434
373.15 K, 1949.4 kPa, x1 = 0.5011	0.01447
373.15 K, 1961.1 kPa, x1 = 0.7503	0.01583
373.15 K, 2125.3 kPa, x1 = 0.5011	0.01458
373.15 K, 2185.2 kPa, x1 = 0.7503	0.01605
373.15 K, 2318.9 kPa, x1 = 0.5011	0.01469
373.15 K, 2415.9 kPa, x1 = 0.7503	0.01623
373.15 K, 2508.1 kPa, x1 = 0.5011	0.01487
373.15 K, 2631.2 kPa, x1 = 0.7503	0.01641
373.15 K, 2708.4 kPa, x1 = 0.5011	0.01508
373.15 K, 2950.3 kPa, x1 = 0.7503	0.01679
373.15 K, 2961.4 kPa, x1 = 0.5011	0.01536
373.15 K, 3209.9 kPa, x1 = 0.7503	0.01714
373.15 K, 3217 kPa, x1 = 0.5011	0.01568
373.15 K, 3421.2 kPa, x1 = 0.7503	0.01749
